Assay results taken from a melting point compilation (Tetko et al.; mined from patent text by program, amines drawn as free bases though some values may be those of a salt).

melting point [°C]	Structure (SMILES)
234 to 236	CCN(CC)c1ccc2nc3c4ccccc4c(=Nc4ccc5ccccc5n4)cc-3oc2c1
214 to 216	CN1c2ccc([N+](=O)[O-])cc2CS1(=O)=O
142 to 144	COC(=O)[C@@](C#N)(CCN(C)C)C(c1ccccc1OC)c1cccc2ccccc12 (single isomer, unassigned)
118 to 120	CCOC(=O)c1ccc(-c2cccc(OCc3ccc(COC(=O)c4ccccc4)c(COC(=O)c4ccccc4)c3)c2)nc1
227 to 229	Cc1nnc2ccc(-c3ccc(F)cc3)nn12
189 to 192	COc1ccc(N2CCOCC2)c2sc(NC(=O)N(C)C3CCC(F)(F)CC3)nc12
179 to 180	COC(=N)c1nn(-c2c(Cl)cc(C(F)(F)F)cc2Cl)c(N)c1S(C)=O (stereo not drawn)
162 to 164	CCOC(=O)C1=C(C)NC(=S)N(S(=O)(=O)c2ccccc2)C1c1cccc([N+](=O)[O-])c1 (stereo not drawn)
166 to 167	CCn1c2ccc(C=O)cc2c2cc(C=C(c3ccccc3)c3ccccc3)ccc21
233 to 235	O=C1CCC(N2Cc3c(OCc4ccc(CN5CCN(C(=O)C6CC6)CC5)cc4)cccc3C2=O)C(=O)N1 (stereo not drawn)
201 to 204	CNC(=O)c1cc(N)cc(N2CCOCC2)c1
82 to 85	CSc1ccc(C2=C(c3ccc(CO)cc3)CCC2)cc1
151 to 152	Cc1oc(-c2ccco2)nc1COc1ccc(COc2ncccc2CC(=O)O)cc1
202 to 205	CC(=O)N1c2ccc(O)cc2Sc2cc([N+](=O)[O-])ccc21
187 to 188	COc1ccc(S(=O)(=O)Nc2ccc(OC)nc2Nc2ccccc2)cc1
56.6	OCCCOc1c(Cl)cc(OCC=C(Cl)Cl)cc1Cl
215 to 217	Cn1c(=O)[nH]c2nc3ccc(OCCCC(=O)N4CCCCC4)cc3cc21
169 to 171	CC(=O)Oc1ccc(C(=O)O)cc1C
185 to 189	CN(C)CCCn1c2ccc(O)cc2c2c3c(c(-c4ccccc4)cc21)C(=O)NC3=O
94 to 95	CC#CN1CCN(C(=O)c2ccccc2)CC1
217 to 219	O=C(Nc1ccc2c(c1)CCC2=O)c1ccc(-c2ccccc2)cc1
176 to 177	Cc1cc(-c2ccc(C#N)cc2)sc1C(=O)N[C@H](C)[C@](O)(Cn1cncn1)c1ccc(F)cc1F
136 to 138	CSc1ccc(C=C(C(=O)O)c2ccc(F)cc2)cc1

melting point [°C]	Structure (SMILES)
185 to 186	O=C1Nc2c(ccc3ccccc23)SC1Cc1ccc(Cl)cc1 (stereo not drawn)
86 to 87	Cc1ccc(C=O)n1Cc1ccc(Cl)cc1Cl
210 to 212	CCN1C(=O)CCCc2c1ccc(Nc1ncc(Cl)c(Nc3ccc(N4CCOCC4)cc3OC)n1)c2OC
86 to 89	CCCCOC(=O)[C@H]1CN(c2cc(F)c(C3CCSCC3)c(F)c2)C(=O)O1
136	O=C(Nc1ccccc1)c1ccc(F)c2c1CC(N(CCCc1c[nH]c3ccc(F)cc13)C1CCC1)CO2 (stereo not drawn)
155 to 157	CC(C)n1nc(Br)nc1O
275 to 276	N#Cc1ccc(C=Cc2cc(=O)c3cc(Br)ccc3o2)cc1
73 to 75	c1ccc(CNC2CN(C(c3ccccc3)c3ccccc3)C2)cc1
172 to 175	C[C@H](NS(=O)(=O)c1ccc(-c2c(C#N)c3cc(F)c(OC(F)F)cc3n2C2CCC2)nc1)C(F)(F)F
80 to 83	CS(=O)(=O)c1ccc(-c2cnn(-c3ccc(F)c(F)c3)c(=O)c2C2CCCCC2)cc1
166 to 168	CCc1nc2cnc3ccccc3c2n1CCCCNS(C)(=O)=O
53 to 55	CN(C)S(=O)(=O)c1cccc(Cl)n1
72 to 73	CC1(C)C2CCC1(CCCC(=O)O)CC2
105 to 108	CN1CCN=C1C(O)(c1ccccc1)c1ccccn1 (stereo not drawn)
60	COC(=O)Cc1ccc(OCCNC(=O)C2Cc3ccccc3N2S(=O)(=O)c2ccc(-c3ccc(Cl)cc3)c(C(F)(F)F)c2)cc1 (stereo not drawn)
132 to 136	CSCn1cc(F)c(N=CN(C)C)nc1=O
94	CC(=O)N1C(=O)OC[C@H]1c1ccccc1
82.9 to 83.9	Cc1cn(Cc2ccccc2[N+](=O)[O-])c(=O)o1
176 to 179	COc1cc(Nc2c(C#N)cnc3c(/C=C/CCN4CCOCC4)cccc23)c(Cl)cc1Cl
134 to 135	COc1ccnc(CSc2nc3cc(OC(F)(F)F)ccc3[nH]2)c1
81 to 83	CCOc1ccc(CCCOc2nn(C)cc2CC(=O)O)c(Oc2ccc(Cl)cc2Cl)n1
159 to 161	COc1ccc(-c2cc(=O)c(C(=O)O)cn2C2CC2)cc1
49 to 50	Nc1cccc2ccc(OCC3CC3)cc12

melting point [°C]	Structure (SMILES)
94 to 94.5	CCOC(=O)[C@@H]1C[C@H]1Sc1nc2ccccc2cc1-c1ccccc1 (relative stereo)
246 to 260	CCOC(=O)c1ccc(N=C(Nc2ccc(C(=O)OCC)cc2)c2ccc(C)cc2)cc1
200 to 208	CC(=O)OC1CCC2(C)C(CCC3C4CC(C)=C(C(C)=O)C4(C)CC(=O)C32)C1 (stereo not drawn)
203 to 206	NC(=O)N1CCC(Oc2ccc([N+](=O)[O-])cc2)(c2ccccc2)CC1
200 to 201	CCc1oc2ccccc2c1C(=O)c1cc(C(C)C)c(OS(=O)(=O)c2ccc(C(=O)O)c(O)c2)c(C(C)C)c1
190 to 191	CC(N)Cn1ncc2ccc3oc(C(=O)NCC(C)O)cc3c21 (stereo not drawn)
223	CS(=O)(=O)c1cccc(NC(=O)c2cnn3c(C(F)F)cc(-c4ccc(OC(F)(F)F)cc4)nc23)c1
124 to 125	CC(C)c1nc(CCCO)n(C)c1Sc1cc(Cl)cc(Cl)c1
120	CCN1CCCc2cc(C(=O)c3ccc4c(c3)CCCN4CC)ccc21
135 to 136	C=Cc1ccc(COc2ccc(CSCCC(=O)O)cc2)cc1
168	CC(=O)Oc1ccc2c(c1)Cc1cc(OC(C)=O)ccc1-2
220 to 221	CC1CC(=O)NN=C1c1ccc(N2CCN(Cc3ccccc3)CC2)c([N+](=O)[O-])c1 (stereo not drawn)
36 to 38	CCCCC(C)C(C=Cc1ccc(OCc2ccccc2)c(OCc2ccccc2)c1)OC (stereo not drawn)
165 to 167	COc1cc(-c2cn(Cc3ccccc3)c(=O)c3ccccc23)ccc1O
132 to 134	COc1ccc(C2=NN(C3CCN(C(=O)CCSCCNC(=O)OC(C)(C)C)CC3)C(=O)[C@@H]3CC=CC[C@H]23)cc1OC
93 to 94	COC(=O)c1nc(-c2ccc(Cl)cc2)c(F)c(N)c1OC
115 to 117	CNc1ccc(N=O)cc1
50	O=C(O)CCCCCNC(=O)C1Cc2ccccc2N1S(=O)(=O)c1ccc(-c2cccc(C(F)(F)F)c2)cc1 (stereo not drawn)
63 to 65	COC1=C(OC)C(=O)C2=C(CCC(CCOc3cc(OC)cc(OC)c3)CC2)C1=O
103 to 104	CC(C)(Oc1ccc(OCCCCc2cc(-c3ccc(C(F)(F)F)cc3)no2)cc1)C(=O)O
152 to 154	Nc1ccc(OC2=CC=CN(Oc3ccc(N)cc3)C2)cc1
253 to 255	Cc1cc(C(=O)c2[nH]c3ccc(Cl)cc3c2CC(=O)O)no1
139 to 140	O=C1Nc2cc3c(cc2OC1CCCBr)CCCC3 (stereo not drawn)

melting point [°C]	Structure (SMILES)
80 to 82	COc1cn(Cc2cccc3ccccc23)c(=O)o1
190 to 192	FC(F)(F)c1ccccc1-c1n[nH]c(-c2ccccc2C(F)(F)F)n1
332 to 341	Cc1[nH]cc2c(=O)n(-c3ccc(Cl)cc3)nc-2c1-c1cccc(NS(C)(=O)=O)c1
179 to 185	O=C(/C=C/c1ccc2ccccc2c1)Nc1cc(Cl)ccc1NC(=O)C(F)(F)F
208 to 210	CC(=O)N[C@@H]1c2cnccc2OC(C)(C)[C@H]1O (relative stereo)
91 to 92	O=C(NS(=O)(=O)c1ccccc1C(=O)OC1COC1)Oc1ccccc1
97 to 99	CSc1nc(Cl)c(Cc2ccccc2)c(N2CCCC2)n1
158 to 161	Cc1ccc2c(Cl)cc(S(=O)(=O)NCc3ccc(Cl)cc3)c(O)c2n1
207 to 208	CCOC(=O)c1cnc2c(c(C)nc3cc(C)nn32)c1O
157	NC1CSC(c2cccs2)CNC1=O (stereo not drawn)
168 to 171	COc1cc2nc(NC3CCC(N(C)C)CC3)c(-c3ccccn3)nc2cc1OC (stereo not drawn)
80 to 81	Oc1cc2c(cc1Sc1ccccc1)OCC2
187 to 189	COc1nc(-c2ccccc2)c(-c2ccc(=O)n(C(C)C)n2)cc1C#N
92 to 93	CCOC(=O)c1cc(CC(C)(C)NC(=O)OC(C)(C)C)n(CCOC)n1
123 to 125	CCn1ccnc1S(N)(=O)=O
> 250	Cc1cccc2c1S(=O)(=O)N=C2C1=C(O)C(C(C)(C)C)N(Cc2ccc(F)cc2)C1=O (stereo not drawn)
129 to 131	COC(=O)NNC(=S)Cc1ccc2ccccc2c1
136 to 138	CC[C@H](C)C(OCc1ccccc1F)[C@H]1[C@H]([N+](=O)[O-])[C@H](c2ccccc2)N[C@@H]1C(=O)NCCC(=O)O (stereo partly drawn)
144 to 146	N#Cc1ccc(OCCO)c(C(N)=O)c1
153 to 156	CSC(=S)N1C(CO)Cc2c([nH]c3ccccc23)C1C (stereo not drawn)

Structure (SMILES)	melting point [°C]
COC12CC(CCN3CCC(c4c[nH]c5ccccc45)CC3)CN(C)C1Cc1c[nH]c3cccc2c13 (stereo not drawn)	153 to 156
O=C(NCc1ccc(Cl)cc1)c1cn(CCN2CCCCC2)c2ccc(C#CCO)cc2c1=O	176 to 180
Clc1ccc(N2CCN(CCc3ccccc3)CC2)nn1	140
O=C1/C(=C/c2ccccc2)N2CCC1CC2	130 to 132
Clc1ccc2[nH]c(-c3ccccc3)c(CCN3CCCCC3)c2c1	153 to 154
CCCN(CCC)Cc1csc(-c2ncn3c2[C@@H]2CCCN2C(=O)c2c(Cl)cccc2-3)n1	213 to 214
CN1[C@H]2CC[C@@H]1[C@H](C(=O)Oc1ccc(Cl)cc1)[C@@H](c1ccc(F)cc1)C2	64 to 66
Cc1[nH]c(Cl)c(C#N)c1SC(F)(Cl)Cl	187
COC12CC(C)(c3nnc(-c4cncc(Br)c4)[nH]3)CN(C)C1Cc1c[nH]c3cccc2c13 (stereo not drawn)	163 to 168
